Patent US11147816B2, “Composition for inducing differentiation and protection of neural stem cells and method for inducing neuro-regeneration using the same composition” (GENUV Inc., priority 2016, dated 2021)

How the values were obtained:
[1] = system: mouse adult neural stem cells; settings: trametinib 10 nM, 100 nM, memantine 5 μM, 10 μM, 4 days
Description: NSC were isolated from the subventricular zone of week 8 mouse brain, treated with 20 ng/ml human basic fibroblast growth factor (bFGF) and 20 ng/ml human epidermal growth factor (EGF) in an IPM medium, and cultured as a suspension in 24-well plates for 7 days.
Two days before the isolation of single cells, 6-well plates were prepared by treating the wells with 10 μg/ml poly-L-ornithine solution and incubating overnight at room temperature for coating. The next day, poly-L-ornithine solution was removed and the plates were washed 3 times with sterilized triple distilled water. […] The culture solution used is N2 culture medium (supplemented with 20 ng/ml bFGF and 20 ng/ml EGF). Right before seeding, the coating solution was suctioned out, and the single cells were uniformly seeded into the culture plate before the plate dried up. Cells were allowed to attach to the plates for about one minute, and after checking that cells were sufficiently attached, an additional 1.5 ml of culture medium (N2 culture medium with 20 ng/ml bFGF and 20 ng/ml EGF) was added to the cells and cultured in a 37° C. incubator for 24 hours.
Wells not treated with amyloid-beta were left to use as negative controls.
Gibco's (Waltham, Mass.) human Aβ (1-42) was purchased to use for the amyloid-beta (Aβ), and the following process was followed to create oligomers. First, amyloid-beta was dissolved in 100% HFIP (1,1,1,3,3,3-hexafluoro-2-propanol) (Sigma, cat#.105228) to obtain a concentration of 1 mg/ml and vortexed at room temperature for 1 hour. Then, it was dried for 10 minutes in a speed Vac, after which DMSO (Sigma, cat#.D2650) was added to bring the concentration to 5 mM and then lightly vortexed at room temperature for 10 minutes. […] The solution was incubated at 4° C. for 24 hours and then added into the cultured cells.
The NCSs were cultured with the daily addition of EGF, bFGF, amyloid-beta, and test materials for 4 days.

Aβ(1-40) and Aβ(1-42) = assay: ELISA of Aβ(1-40) and Aβ(1-42) in brain hemispheres (Example 13); type: in vivo, mouse; settings: orally daily for 28 days, vs vehicle
Description: Using the ground powder of 5XFAD mouse brain hemispheres obtained in Example 12, the amount of Aβ(1-40) and Aβ(1-42) was quantified by ELISA (enzyme-linked immunosorbent assay). […] After measuring the protein concentration, dilution buffer was added to obtain 30˜50 μg of protein in 100 μl solution. 100 μl each of anti-Aβ(1-40) and Aβ(1-42) antibodies were added to the 96-well plates, incubated at room temperature for 2 hours, then removed and washed 4 times with wash buffer. 100 μl each of HRP-conjugated secondary antibodies was added and incubated at room temperature for 30 minutes. The solution was then removed and washed again 4 times with wash buffer. 100 μl of the […] was added to the wells, incubated in the dark for 30 minutes, and 100 μl of the stop solution added to terminate the reaction. Then, the chemiluminiscence reaction was measured at 450 nm with an ELISA plate reader. The absorbance was converted in reference to the standard concentration and the concentration of each protein was determined. The amount of Aβ(1-40) and Aβ(1-42) in reference to the total amount of protein (30˜50 μg) was calculated, and then the amount of Aβ(1-42) in reference to the amount of Aβ(1-40) was calculated.

`CC(=O)Nc1cccc(-n2c(=O)n(C3CC3)c(=O)c3c(Nc4ccc(I)cc4F)n(C)c(=O)c(C)c32)c1` [trametinib, N-(3-{3-cyclopropyl-5-[(2-fluoro-4-iodophenyl)amino]-6,8-dimethyl-2,4,7-trioxo-3,4,6,7-tetrahydropyrido[4,3-d]pyrimidin-1(2H)-yl}phenyl)acetamide] was tested, and the “cell toxicity / cell death (morphology)” value ([1]; AS703026 10 μM) was “did not elicit cell toxicity”, the “differentiation of NSC into neurons (morphology)” value ([1]; with or without 10 μM oligomeric Aβ(1-42)) was “readily induced the differentiation of NSC into neurons” and the “amount of Aβ(1-42)/Aβ(1-40)” value (Aβ(1-40) and Aβ(1-42)) was “decreased”.
